The source of these data is patent publication US11324219B2, “Amide compound or salt thereof, agricultural and horticultural microbicide comprising the compound and the salt, and method for using the agricultural and horticultural microbicide” (Nihon Nohyaku Co., Ltd., priority 2018, dated 2022).

Molecules are shown by their SMILES.

The melting point is the temperature of the solid-liquid transition.

`CCS(=O)(=O)c1cc(C(F)(F)F)ccc1C(=O)Nc1oc(C(F)(F)F)cc1Br` [Compound 1-23, N-[3-bromo-5-(trifluoromethyl)furan-2-yl]-2-(ethylsulfonyl)-4-(trifluoromethyl)benzamide] gave a melting point of 160 to 162 °C.
